Laboratory results as given in US9889113B2, “Method for reversing, preventing, delaying or stabilizing soft tissue calcification” (Panion & BF Biotech, Inc., priority 2006, dated 2018).

System: patients with end stage renal disease (ESRD) on hemodialysis
Test: Randomized, double-blind, placebo-controlled, dose-ranging study of ferric citrate on serum phosphate, Ca and Ca×PO4
Type: in vivo, human
Details: for Serum [Ca] (mg/dL) at Day 0 / Serum [PO4] (mg/dL) at Day 0 / [Ca] * [PO4] (mg/dL)^2 at Day 0: Day 0 baseline; for Serum Ca (mg/dL): Linear Regression: N.S.: Not Significant
Excerpt: Objectives: (1) To determine the effect of ferric citrate at doses of 2, 4 and 6 g daily, administered TID (three times a day), for 28 days on serum phosphate (PO4) levels in patients with end stage renal disease (ESRD). (2) To evaluate the safety of ferric citrate at doses of 2, 4, 6 g daily, administered TID, for 28 days in patients with ESRD.
Study Design: Randomized, double-blind, placebo-controlled, dose-ranging study to assess the effect of ferric citrate on serum phosphate concentrations in patients with ESRD on hemodialysis. Patients are assessed at Study Days 14 and 28 for effectiveness as measured by serum phosphate concentrations. Patients who received one or more doses of study medication are also assessed for safety.
Study Duration: 8 weeks (including the screening period, 2 weeks washout, 4 weeks treatment)
Ferric citrate is administered orally, and is given equally three times a day.

[1] = 0, 2, 4 and 6 gm/day, TID immediately after meals
[2] = 6 g/day (N = 32), Day 28, *P < 0.05 baseline change vs placebo
[3] = Day 14, 2, 4, 6 g/day TID vs placebo
[4] = Day 28, 2, 4, 6 g/day TID vs placebo

O=C([O-])CC(O)(CC(=O)[O-])C(=O)[O-].[Fe+3] [ferric citrate]
Ca*PO4 [1]: decrease
serum PO4 [1]: decrease
Serum [Ca] (mg/dL) at Day 0 (2 g/day (N = 31)): 8.78 mg/dL
Serum [PO4] (mg/dL) at Day 0 (2 g/day (N = 31)): 7.2 mg/dL
[Ca] * [PO4] (mg/dL)^2 at Day 0 (2 g/day (N = 31)): 62.9 (mg/dL)^2
Serum [Ca] (mg/dL) at Day 14 (2 g/day (N = 31), Day 14): 9.01 mg/dL
Serum [PO4] (mg/dL) at Day 14 (2 g/day (N = 31), Day 14): 6.7 mg/dL
[Ca] * [PO4] (mg/dL)^2 at Day 14 (2 g/day (N = 31), Day 14): 60.3 (mg/dL)^2
Serum [Ca] (mg/dL) at Day 28 (2 g/day (N = 31), Day 28): 9.00 mg/dL
Serum [PO4] (mg/dL) at Day 28 (2 g/day (N = 31), Day 28): 6.9 mg/dL
[Ca] * [PO4] (mg/dL)^2 at Day 28 (2 g/day (N = 31), Day 28): 61.7 (mg/dL)^2
Serum [Ca] (mg/dL) at Day 0 (4 g/day (N = 32)): 9.02 mg/dL
Serum [PO4] (mg/dL) at Day 0 (4 g/day (N = 32)): 7.1 mg/dL
[Ca] * [PO4] (mg/dL)^2 at Day 0 (4 g/day (N = 32)): 63.5 (mg/dL)^2
Serum [Ca] (mg/dL) at Day 14 (4 g/day (N = 32), Day 14): 9.47 mg/dL
Serum [PO4] (mg/dL) at Day 14 (4 g/day (N = 32), Day 14): 6.4 mg/dL
[Ca] * [PO4] (mg/dL)^2 at Day 14 (4 g/day (N = 32), Day 14): 59.9 (mg/dL)^2
Serum [Ca] (mg/dL) at Day 28 (4 g/day (N = 32), Day 28): 9.29 mg/dL
Serum [PO4] (mg/dL) at Day 28 (4 g/day (N = 32), Day 28): 6.0 mg/dL
[Ca] * [PO4] (mg/dL)^2 at Day 28 (4 g/day (N = 32), Day 28): 55.4 (mg/dL)^2
Serum [Ca] (mg/dL) at Day 0 (6 g/day (N = 32)): 8.99 mg/dL
Serum [PO4] (mg/dL) at Day 0 (6 g/day (N = 32)): 7.3 mg/dL
[Ca] * [PO4] (mg/dL)^2 at Day 0 (6 g/day (N = 32)): 65.8 (mg/dL)^2
Serum [Ca] (mg/dL) at Day 14 (6 g/day (N = 32), Day 14): 9.13 mg/dL
Serum [PO4] (mg/dL) at Day 14 (6 g/day (N = 32), Day 14): 6.3 mg/dL
[Ca] * [PO4] (mg/dL)^2 at Day 14 (6 g/day (N = 32), Day 14): 57.5 (mg/dL)^2
Serum [Ca] (mg/dL) at Day 28 (6 g/day (N = 32), Day 28): 9.26 mg/dL
Serum [PO4] (mg/dL) at Day 28 [2]: 5.8 mg/dL
[Ca] * [PO4] (mg/dL)^2 at Day 28 [2]: 54.1 (mg/dL)^2
Ca*P04 levels (6 gm/day dose at both 14 and 28 days): have decreased and were statistically significant
Serum Ca (mg/dL): Dose Response (Day 0): No
Ca × PO4 (mg/dL)^2: Dose Response [3]: Yes
Ca × PO4 (mg/dL)^2: Linear Regression P [3]: P = 0.0401
Ca × PO4 (mg/dL)^2: Statistical Significant [3]: No
Serum Ca (mg/dL): Dose Response [3]: No
Serum Ca (mg/dL): Statistical Significant [3]: No
Serum PO4 (mg/dL): Dose Response [3]: No
Serum PO4 (mg/dL): Statistical Significant [3]: No
Serum Ca (mg/dL): Linear Regression (Day 14): N.S.
Ca × PO4 (mg/dL)^2: Dose Response [4]: Yes
Serum Ca (mg/dL): Dose Response [4]: No
Serum Ca (mg/dL): Statistical Significant [4]: No
Serum PO4 (mg/dL): Dose Response [4]: Yes
Serum PO4 (mg/dL): Linear Regression P [4]: P = 0.0073
Serum PO4 (mg/dL): Statistical Significant [4]: Yes (6 g/day)
[Ca] * [PO4] (mg/dL)^2: Dose Response (Day 28, 2, 4, 6 g/day vs placebo): Yes
Serum Ca (mg/dL): Linear Regression (Day 28): N.S.
Ca × PO4 (mg/dL)^2: Statistical Significant (Day 78, 2, 4, 6 g/day TID vs placebo): Yes (6 g/day)
serum Ca×P (Phase II study): decrease serum Ca×P in a dose-dependent manner
change in serum calcium level (during the 28 days, 2, 4, and 6 gm/day): No significant change
ability to lower serum phosphate levels (patients with ESRD): demonstrated
